The data set in a line: molar enthalpy of vaporization or sublimation. The conditions noted are these: 298.15 K; Crystal; Static calorimetry.

Each structure is given as a SMILES string. Numbers after ± are expanded uncertainties.

Consider `CC(=O)c1cccc(C#N)c1` [3-acetylbenzonitrile], for which the molar enthalpy stood at 94.7 ± 1.5 kJ/mol.
With `N#CCC(=O)c1ccccc1` [3-oxo-3-phenylpropanenitrile], the molar enthalpy amounted to 98.5 ± 2.1 kJ/mol.

The record behind these values is the NIST ThermoML archive (doi:10.1016/j.jct.2015.08.008).
